{"source": "PubChem BioAssay (NCI)", "note": "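96-well plates; 48 h exposure; 5 concentrations. Endpoints by linear interpolation between flanking doses. Not reached: highest tested concentration assigned. TGI is the concentration that stops growth completely.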"}
{"test_system": "SF-539 CNS", "test": "NCI anticancer screen, dose series, 48 h", "units": {"TGI": "µM"}}
{"smiles": "Cc1ccc(C2SCC(=O)N2c2ccc(-n3c(-c4ccccc4)nc4ccccc4c3=O)cc2)cc1", "note": "(stereo not drawn)", "TGI": 39.6}
{"smiles": "C/C=C/C(CC(O)(C(F)(F)F)C(F)(F)F)=N/NC(N)=S", "TGI": "> 10"}
{"smiles": "Fc1ccc2c(c1)nc1n2C(c2c(Cl)cccc2Cl)SC1", "note": "(stereo not drawn)", "TGI": 34.8}
{"smiles": "CC(C)C1=CC23CCC4C(C)(C(=O)O)CCCC4(C)C2CC1C1C(=O)N(c2ccc(Cc4ccc(N5C(=O)C6C7CC8C9(C)CCCC(C)(C(=O)O)C9CCC8(C=C7C(C)C)C6C5=O)cc4)cc2)C(=O)C13", "note": "(stereo not drawn)", "TGI": 20.1}
{"smiles": "NC(N)=NS(=O)(=O)c1ccc(NNc2c3ccccc3nc3c(C(=O)Nc4ccc(S(=O)(=O)Nc5ncccn5)cc4)cccc23)cc1", "TGI": "> 100"}
{"smiles": "CCOC1(OCC)C2C=CC1C(COS(=O)(=O)c1ccc(C)cc1)C2COS(=O)(=O)c1ccc(C)cc1", "note": "(stereo not drawn)", "TGI": "> 100"}
{"smiles": "Cc1[nH]c(=O)nc2nc3ccc(Cl)cc3c(NCCNCCO)c12", "TGI": 20.6}
{"smiles": "CC(C)(C)OC(=O)NC1CCCCC1NC(=O)C(=O)NC1CCCCC1NC(=O)OC(C)(C)C", "note": "(stereo not drawn)", "TGI": "> 100"}
{"smiles": "COc1cc(C2c3cc4c(cc3OC(N3CCCCC3)C2C)OCO4)cc(OC)c1O", "note": "(stereo not drawn)", "TGI": 25.5}
{"smiles": "N#C[C@H](c1ccccn1)c1nc2ccccc2nc1Cl", "TGI": "> 100"}
{"smiles": "Cc1c(C)c2c(c(N)c1C#N)C(=O)N(NC(=O)c1ccccc1)C2=O", "TGI": "> 100"}
{"smiles": "O=C1COc2cccnc2N1CCCCO", "TGI": "> 100"}
{"smiles": "CC(=O)OC(OC(C)=O)c1ccc2ccc3cccc4ccc1c2c34", "TGI": "> 100"}
{"test_system": "ACHN renal", "test": "NCI anticancer screen, dose series, 48 h", "units": {"TGI": "µM"}}
{"smiles": "O=C1C=CC(=O)c2c1ccc1c3ccccc3n(CCCCCn3c4ccccc4c4ccc5c(c43)C(=O)C=CC5=O)c21", "TGI": 28.6}
{"smiles": "C=C(Cl)C(=CCl)CCC(Br)C(C)(C)Cl", "note": "(mixture of isomers)", "TGI": "> 10"}
{"smiles": "O=C1C2SC34c5c2c2ccccc2n5CCC3CCCN14", "note": "(stereo not drawn)", "TGI": "> 100"}
{"smiles": "CC(=O)N(C(C)=O)c1ncc(-n2nc(-c3ccccc3)cc2-c2ccccc2)c(-c2ccccc2)n1", "TGI": "> 10"}
{"smiles": "CN1C(=O)c2ccccc2OC12C=Cc1c(ccc3ccccc13)O2", "note": "(stereo not drawn)", "TGI": 10.2}
{"smiles": "CC(=O)Nc1sc(Br)cc1S(=O)(=O)c1ccc(Cl)cc1", "TGI": "> 100"}
{"smiles": "O=C1Sc2cc3ccccc3cc2C(=O)Sc2ccc(Br)cc21", "TGI": 6.02}
{"smiles": "O=C(/C=C/c1ccccc1)Oc1cccc(O)c1", "TGI": "> 100"}
{"smiles": "CC(C)NC(=O)OCc1c(COC(=O)NC(C)C)c(-c2cc[n+](COC(=O)C3CC3)cc2)n2c1CCC2", "TGI": "> 100"}
{"smiles": "COC(=O)C1=C(C(=O)OC)N(c2ccc(OC)cc2[N+](=O)[O-])C(c2ccc(C)cc2)=CC1c1ccc(OC)cc1OC", "note": "(stereo not drawn)", "TGI": "> 100"}
{"smiles": "O=c1[nH]nnc2c1sc1ncccc12", "TGI": "> 100"}
{"smiles": "Cc1ccc(C2SCC(=O)N2c2ccc(-n3c(-c4ccccc4)nc4ccccc4c3=O)cc2)cc1", "note": "(stereo not drawn)", "TGI": 86.4}
{"smiles": "C/C=C/C(CC(O)(C(F)(F)F)C(F)(F)F)=N/NC(N)=S", "TGI": "> 10"}
{"smiles": "Fc1ccc2c(c1)nc1n2C(c2c(Cl)cccc2Cl)SC1", "note": "(stereo not drawn)", "TGI": 30.7}
{"smiles": "CC(C)C1=CC23CCC4C(C)(C(=O)O)CCCC4(C)C2CC1C1C(=O)N(c2ccc(Cc4ccc(N5C(=O)C6C7CC8C9(C)CCCC(C)(C(=O)O)C9CCC8(C=C7C(C)C)C6C5=O)cc4)cc2)C(=O)C13", "note": "(stereo not drawn)", "TGI": 17.8}
{"smiles": "NC(N)=NS(=O)(=O)c1ccc(NNc2c3ccccc3nc3c(C(=O)Nc4ccc(S(=O)(=O)Nc5ncccn5)cc4)cccc23)cc1", "TGI": "> 100"}
{"smiles": "CCOC1(OCC)C2C=CC1C(COS(=O)(=O)c1ccc(C)cc1)C2COS(=O)(=O)c1ccc(C)cc1", "note": "(stereo not drawn)", "TGI": "> 100"}
{"smiles": "Cc1[nH]c(=O)nc2nc3ccc(Cl)cc3c(NCCNCCO)c12", "TGI": 27.4}
{"smiles": "CC(C)(C)OC(=O)NC1CCCCC1NC(=O)C(=O)NC1CCCCC1NC(=O)OC(C)(C)C", "note": "(stereo not drawn)", "TGI": "> 100"}
{"smiles": "COc1cc(C2c3cc4c(cc3OC(N3CCCCC3)C2C)OCO4)cc(OC)c1O", "note": "(stereo not drawn)", "TGI": 23.1}
{"smiles": "N#C[C@H](c1ccccn1)c1nc2ccccc2nc1Cl", "TGI": "> 100"}
{"smiles": "Cc1c(C)c2c(c(N)c1C#N)C(=O)N(NC(=O)c1ccccc1)C2=O", "TGI": "> 100"}
{"smiles": "O=C1COc2cccnc2N1CCCCO", "TGI": "> 100"}
{"smiles": "CC(=O)OC(OC(C)=O)c1ccc2ccc3cccc4ccc1c2c34", "TGI": 65.8}
{"test_system": "NCI-H23 lung", "test": "NCI anticancer screen, dose series, 48 h", "units": {"TGI": "µM"}}
{"smiles": "O=C1C=CC(=O)c2c1ccc1c3ccccc3n(CCCCCn3c4ccccc4c4ccc5c(c43)C(=O)C=CC5=O)c21", "TGI": 32.8}
{"smiles": "C=C(Cl)C(=CCl)CCC(Br)C(C)(C)Cl", "note": "(mixture of isomers)", "TGI": "> 10"}
{"smiles": "O=C1C2SC34c5c2c2ccccc2n5CCC3CCCN14", "note": "(stereo not drawn)", "TGI": "> 100"}
{"smiles": "CC(=O)N(C(C)=O)c1ncc(-n2nc(-c3ccccc3)cc2-c2ccccc2)c(-c2ccccc2)n1", "TGI": "> 10"}
{"smiles": "CN1C(=O)c2ccccc2OC12C=Cc1c(ccc3ccccc13)O2", "note": "(stereo not drawn)", "TGI": 16}
{"smiles": "CC(=O)Nc1sc(Br)cc1S(=O)(=O)c1ccc(Cl)cc1", "TGI": "> 100"}
{"smiles": "O=C1Sc2cc3ccccc3cc2C(=O)Sc2ccc(Br)cc21", "TGI": 23.3}
{"smiles": "O=C(/C=C/c1ccccc1)Oc1cccc(O)c1", "TGI": "> 100"}
{"smiles": "CC(C)NC(=O)OCc1c(COC(=O)NC(C)C)c(-c2cc[n+](COC(=O)C3CC3)cc2)n2c1CCC2", "TGI": "> 100"}
{"smiles": "COC(=O)C1=C(C(=O)OC)N(c2ccc(OC)cc2[N+](=O)[O-])C(c2ccc(C)cc2)=CC1c1ccc(OC)cc1OC", "note": "(stereo not drawn)", "TGI": "> 100"}
{"smiles": "O=c1[nH]nnc2c1sc1ncccc12", "TGI": "> 100"}
{"smiles": "Cc1ccc(C2SCC(=O)N2c2ccc(-n3c(-c4ccccc4)nc4ccccc4c3=O)cc2)cc1", "note": "(stereo not drawn)", "TGI": "> 100"}
{"smiles": "C/C=C/C(CC(O)(C(F)(F)F)C(F)(F)F)=N/NC(N)=S", "TGI": "> 10"}
{"smiles": "Fc1ccc2c(c1)nc1n2C(c2c(Cl)cccc2Cl)SC1", "note": "(stereo not drawn)", "TGI": 26.2}
{"smiles": "CC(C)C1=CC23CCC4C(C)(C(=O)O)CCCC4(C)C2CC1C1C(=O)N(c2ccc(Cc4ccc(N5C(=O)C6C7CC8C9(C)CCCC(C)(C(=O)O)C9CCC8(C=C7C(C)C)C6C5=O)cc4)cc2)C(=O)C13", "note": "(stereo not drawn)", "TGI": 10.9}
{"smiles": "NC(N)=NS(=O)(=O)c1ccc(NNc2c3ccccc3nc3c(C(=O)Nc4ccc(S(=O)(=O)Nc5ncccn5)cc4)cccc23)cc1", "TGI": "> 100"}
{"smiles": "CCOC1(OCC)C2C=CC1C(COS(=O)(=O)c1ccc(C)cc1)C2COS(=O)(=O)c1ccc(C)cc1", "note": "(stereo not drawn)", "TGI": "> 100"}
{"smiles": "Cc1[nH]c(=O)nc2nc3ccc(Cl)cc3c(NCCNCCO)c12", "TGI": 21.5}
{"smiles": "CC(C)(C)OC(=O)NC1CCCCC1NC(=O)C(=O)NC1CCCCC1NC(=O)OC(C)(C)C", "note": "(stereo not drawn)", "TGI": "> 100"}
{"smiles": "COc1cc(C2c3cc4c(cc3OC(N3CCCCC3)C2C)OCO4)cc(OC)c1O", "note": "(stereo not drawn)", "TGI": "> 66.9"}
{"smiles": "N#C[C@H](c1ccccn1)c1nc2ccccc2nc1Cl", "TGI": "> 100"}
